One compound from ChEMBL document CHEMBL5252552, “Defined concatenated α6α1β3γ2 GABAA receptor constructs reveal dual action of pyrazoloquinolinone allosteric modulators” (Bioorg Med Chem, 2019) can be followed below.

Experiment [1] addresses T1, Gamma-aminobutyric acid receptor subunit alpha-1/alpha-6/beta-3/gamma-2 (Rattus norvegicus) (UniProt P18508+P30191+P62813+P63079). Description: Positive allosteric modulation of rat recombinant GABAA gamma2beta3alpha1-beta3alpha6 receptor expressed in Xenopus laevis oocytes assessed as maximal efficacy at -80 mV holding potential at 3 uM in presence of GABA EC1 to 1.5 by two-electrode voltage-clamp assay. It counts as cell-based. Conditions: Oocyte, filed as positive allosteric modulator. On the technique in general: In two-electrode clamp one electrode senses voltage and the other passes current.

Experiment [2] deals with T1, Gamma-aminobutyric acid receptor subunit alpha-1/alpha-6/beta-3/gamma-2 (Rattus norvegicus). The experiment in a line: Positive allosteric modulation of rat recombinant GABAA alpha6beta3alpha1-gamma2beta3 receptor expressed in Xenopus laevis oocytes assessed as maximal efficacy at -80 mV holding potential at 10 nM in presence of GABA EC1 to 1.5 by two-electrode voltage-clamp assay. It counts as cell-based. Conditions: Oocyte.

The target in experiment [3] is Gamma-aminobutyric acid receptor subunit alpha-6/beta-3/gamma-2 (Rattus norvegicus, UniProt P18508+P30191+P63079). Description: Positive allosteric modulation of rat recombinant GABAA alpha6beta3gamma2 receptor expressed in Xenopus laevis oocytes assessed as increase in GABA-induced current amplitude at -80 mV holding potential under less potent phase in presence of GABA EC1 to 1.5 by two-electrode voltage-clamp assay. It counts as cell-based, Oocyte.
Chain of Gamma-aminobutyric acid receptor subunit alpha-6/beta-3/gamma-2 (P18508 whole entry): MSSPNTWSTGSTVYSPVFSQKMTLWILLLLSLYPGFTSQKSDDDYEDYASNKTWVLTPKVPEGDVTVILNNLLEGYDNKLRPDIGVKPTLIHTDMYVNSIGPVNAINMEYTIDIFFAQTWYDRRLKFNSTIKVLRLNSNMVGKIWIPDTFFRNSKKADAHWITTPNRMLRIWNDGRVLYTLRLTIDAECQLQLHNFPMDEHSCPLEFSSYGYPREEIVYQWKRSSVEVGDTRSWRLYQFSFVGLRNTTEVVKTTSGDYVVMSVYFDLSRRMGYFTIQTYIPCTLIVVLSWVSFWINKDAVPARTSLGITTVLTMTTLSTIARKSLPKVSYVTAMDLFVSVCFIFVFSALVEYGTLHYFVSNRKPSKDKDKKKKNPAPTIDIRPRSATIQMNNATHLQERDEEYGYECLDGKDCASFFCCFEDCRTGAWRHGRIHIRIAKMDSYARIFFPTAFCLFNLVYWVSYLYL
Chain of Gamma-aminobutyric acid receptor subunit alpha-6/beta-3/gamma-2 (P30191 whole entry): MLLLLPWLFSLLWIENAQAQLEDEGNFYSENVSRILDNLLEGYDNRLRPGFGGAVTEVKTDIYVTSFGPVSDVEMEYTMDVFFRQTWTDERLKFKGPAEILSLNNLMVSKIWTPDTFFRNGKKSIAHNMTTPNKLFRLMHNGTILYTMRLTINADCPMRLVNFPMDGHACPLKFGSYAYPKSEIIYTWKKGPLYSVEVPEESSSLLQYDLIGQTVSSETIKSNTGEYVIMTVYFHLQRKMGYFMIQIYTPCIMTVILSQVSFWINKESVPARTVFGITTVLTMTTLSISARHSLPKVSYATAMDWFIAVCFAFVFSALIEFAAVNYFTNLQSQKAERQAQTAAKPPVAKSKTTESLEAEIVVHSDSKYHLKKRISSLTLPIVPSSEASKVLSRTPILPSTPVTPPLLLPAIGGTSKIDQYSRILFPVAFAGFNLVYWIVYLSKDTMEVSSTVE
Chain of Gamma-aminobutyric acid receptor subunit alpha-6/beta-3/gamma-2 (P63079 whole entry): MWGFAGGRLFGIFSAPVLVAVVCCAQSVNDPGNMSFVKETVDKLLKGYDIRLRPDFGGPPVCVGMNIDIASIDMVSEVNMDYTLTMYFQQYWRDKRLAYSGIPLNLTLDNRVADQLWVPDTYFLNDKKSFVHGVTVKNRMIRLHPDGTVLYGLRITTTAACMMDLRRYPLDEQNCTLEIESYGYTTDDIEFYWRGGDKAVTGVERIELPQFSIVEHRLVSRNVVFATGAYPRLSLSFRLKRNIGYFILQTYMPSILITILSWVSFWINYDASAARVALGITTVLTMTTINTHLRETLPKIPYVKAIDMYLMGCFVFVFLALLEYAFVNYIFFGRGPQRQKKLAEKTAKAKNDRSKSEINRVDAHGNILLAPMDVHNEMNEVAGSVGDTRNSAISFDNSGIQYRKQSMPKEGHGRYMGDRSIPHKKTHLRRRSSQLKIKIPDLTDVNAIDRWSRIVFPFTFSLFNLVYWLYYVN

The target in experiment [4] is T2, Gamma-aminobutyric acid receptor subunit alpha-6/beta-3/gamma-2 (Rattus norvegicus) (UniProt P18508+P30191+P63079). The experiment in a line: Positive allosteric modulation of rat recombinant GABAA alpha6beta3alpha6-gamma2beta3 receptor expressed in Xenopus laevis oocytes assessed as maximal efficacy at -80 mV holding potential at 3 nM in presence of GABA EC1 to 1.5 by two-electrode voltage-clamp assay. Conditions: Oocyte. It counts as cell-based.

The target in experiment [5] is T2, Gamma-aminobutyric acid receptor subunit alpha-6/beta-3/gamma-2 (Rattus norvegicus). Description: Positive allosteric modulation of rat recombinant GABAA alpha6beta3alpha6-gamma2beta3 receptor expressed in Xenopus laevis oocytes assessed as maximal current at -80 mV holding potential under more potent phase in presence of GABA EC1 to 1.5 by two-electrode voltage-clamp assay relative to control. It counts as cell-based. The following applies: Oocyte, filed as positive allosteric modulator.

The target of experiment [6] is T3, Gamma-aminobutyric acid receptor subunit alpha-1/beta-3/gamma-2 (Rattus norvegicus) (UniProt P18508+P62813+P63079). Description: Positive allosteric modulation of rat recombinant GABAA alpha1beta3gamma2 receptor expressed in Xenopus laevis oocytes assessed as maximal efficacy at -80 mV holding potential at 1 uM in presence of GABA EC1 to 1.5 by two-electrode voltage-clamp assay. Conditions: Oocyte. It counts as cell-based.

Experiment [7] concerns the target T1, Gamma-aminobutyric acid receptor subunit alpha-1/alpha-6/beta-3/gamma-2 (Rattus norvegicus). The experiment in a line: Positive allosteric modulation of rat recombinant GABAA gamma2beta3alpha1-beta3alpha6 receptor expressed in Xenopus laevis oocytes assessed as maximal efficacy at -80 mV holding potential at 1 uM in presence of GABA EC1 to 1.5 by two-electrode voltage-clamp assay. The following applies: Oocyte, filed as positive allosteric modulator. It counts as cell-based.

For experiment [8], the target named is T2, Gamma-aminobutyric acid receptor subunit alpha-6/beta-3/gamma-2 (Rattus norvegicus). The experiment in a line: Positive allosteric modulation of rat recombinant GABAA alpha6beta3alpha6-gamma2beta3 receptor expressed in Xenopus laevis oocytes assessed as maximal efficacy at -80 mV holding potential at 30 uM in presence of GABA EC1 to 1.5 by two-electrode voltage-clamp assay. It counts as cell-based. Conditions: Oocyte, filed as positive allosteric modulator.

Experiment [9] deals with T3, Gamma-aminobutyric acid receptor subunit alpha-1/beta-3/gamma-2 (Rattus norvegicus). Description: Positive allosteric modulation of rat recombinant GABAA alpha1beta3gamma2 receptor expressed in Xenopus laevis oocytes assessed as maximal efficacy at -80 mV holding potential at 10 uM in presence of GABA EC1 to 1.5 by two-electrode voltage-clamp assay. It counts as cell-based. Conditions: Oocyte, filed as positive allosteric modulator.

For experiment [10] the target is unchanged. The experiment in a line: Positive allosteric modulation of rat recombinant GABAA alpha1beta3gamma2 receptor expressed in Xenopus laevis oocytes assessed as maximal efficacy at -80 mV holding potential at 3 uM in presence of GABA EC1 to 1.5 by two-electrode voltage-clamp assay. Conditions: Oocyte, filed as positive allosteric modulator. It counts as cell-based.

The target of experiment [11] is T2, Gamma-aminobutyric acid receptor subunit alpha-6/beta-3/gamma-2 (Rattus norvegicus). The experiment in a line: Positive allosteric modulation of rat recombinant GABAA alpha6beta3alpha6-gamma2beta3 receptor expressed in Xenopus laevis oocytes assessed as maximal efficacy at -80 mV holding potential at 30 nM in presence of GABA EC1 to 1.5 by two-electrode voltage-clamp assay. It counts as cell-based. Conditions: Oocyte, filed as positive allosteric modulator.

Experiment [12] shares this target. The experiment in a line: Positive allosteric modulation of rat recombinant GABAA alpha6beta3gamma2 receptor expressed in Xenopus laevis oocytes assessed as maximal current at -80 mV holding potential under less potent phase in presence of GABA EC1 to 1.5 by two-electrode voltage-clamp assay relative to control. It counts as cell-based. Conditions: Oocyte, filed as positive allosteric modulator.

Experiment [13] shares this target. Description: Positive allosteric modulation of rat recombinant GABAA alpha6beta3gamma2 receptor expressed in Xenopus laevis oocytes assessed as maximal efficacy at -80 mV holding potential at 10 uM in presence of GABA EC1 to 1.5 by two-electrode voltage-clamp assay. It counts as cell-based. Conditions: Oocyte, filed as positive allosteric modulator.
For experiment [14] the target is unchanged. The experiment in a line: Positive allosteric modulation of rat recombinant GABAA alpha6beta3gamma2 receptor expressed in Xenopus laevis oocytes assessed as maximal efficacy at -80 mV holding potential at 30 uM in presence of GABA EC1 to 1.5 by two-electrode voltage-clamp assay. It counts as cell-based. The following applies: Oocyte, filed as positive allosteric modulator.

Experiment [15] deals with T3, Gamma-aminobutyric acid receptor subunit alpha-1/beta-3/gamma-2 (Rattus norvegicus). The experiment in a line: Positive allosteric modulation of rat recombinant GABAA alpha1beta3alpha1-gamma2beta3 receptor expressed in Xenopus laevis oocytes assessed as maximal efficacy at -80 mV holding potential at 30 uM in presence of GABA EC1 to 1.5 by two-electrode voltage-clamp assay. It counts as cell-based. The following applies: Oocyte, filed as positive allosteric modulator.

For experiment [16] the target is unchanged. Description: Positive allosteric modulation of rat recombinant GABAA alpha1beta3alpha1-gamma2beta3 receptor expressed in Xenopus laevis oocytes assessed as maximal efficacy at -80 mV holding potential at 300 nM in presence of GABA EC1 to 1.5 by two-electrode voltage-clamp assay. It counts as cell-based. The following applies: Oocyte.
The target in experiment [17] is T2, Gamma-aminobutyric acid receptor subunit alpha-6/beta-3/gamma-2 (Rattus norvegicus). Description: Positive allosteric modulation of rat recombinant GABAA alpha6beta3alpha6-gamma2beta3 receptor expressed in Xenopus laevis oocytes assessed as maximal current under less potent phase in presence of GABA EC1 to 1.5 by two-electrode voltage-clamp assay relative to control. It counts as cell-based. Conditions: Oocyte, filed as positive allosteric modulator.

The target is the same in experiment [18]. The experiment in a line: Positive allosteric modulation of rat recombinant GABAA alpha6beta3alpha6-gamma2beta3 receptor expressed in Xenopus laevis oocytes assessed as maximal efficacy at -80 mV holding potential at 100 nM in presence of GABA EC1 to 1.5 by two-electrode voltage-clamp assay. It counts as cell-based. The following applies: Oocyte, filed as positive allosteric modulator.

The target of experiment [19] is T4, Gamma-aminobutyric acid receptor subunit alpha-1/alpha-6/beta-3/gamma-2 (Rattus norvegicus, UniProt P18508+P30191+P62813+P63079). The experiment in a line: Positive allosteric modulation of rat recombinant GABAA alpha6beta3alpha1-gamma2beta3 receptor expressed in Xenopus laevis oocytes assessed as increase in GABA-induced current amplitude at -80 mV holding potential under less potent phase in presence of GABA EC1 to 1.5 by two-electrode voltage-clamp assay. It counts as cell-based, Oocyte.
T4 sequence (P18508 whole entry): as the sequence (P18508 whole entry) above
T4 sequence (P30191 whole entry): as the sequence (P30191 whole entry) above
T4 sequence (P62813 whole entry): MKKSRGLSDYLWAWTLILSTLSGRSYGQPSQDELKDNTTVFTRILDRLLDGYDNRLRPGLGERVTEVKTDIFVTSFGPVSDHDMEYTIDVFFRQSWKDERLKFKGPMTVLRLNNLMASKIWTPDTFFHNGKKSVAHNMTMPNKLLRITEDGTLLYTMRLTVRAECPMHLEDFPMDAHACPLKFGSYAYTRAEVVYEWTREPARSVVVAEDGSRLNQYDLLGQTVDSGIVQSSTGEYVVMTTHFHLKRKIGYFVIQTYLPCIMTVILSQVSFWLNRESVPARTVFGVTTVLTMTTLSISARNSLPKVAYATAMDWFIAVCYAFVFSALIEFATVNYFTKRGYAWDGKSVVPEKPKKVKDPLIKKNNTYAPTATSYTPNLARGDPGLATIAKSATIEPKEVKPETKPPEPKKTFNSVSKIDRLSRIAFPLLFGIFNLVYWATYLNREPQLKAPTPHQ
T4 sequence (P63079 whole entry): as the sequence (P63079 whole entry) above

The target in experiment [20] is T1, Gamma-aminobutyric acid receptor subunit alpha-1/alpha-6/beta-3/gamma-2 (Rattus norvegicus). Description: Positive allosteric modulation of rat recombinant GABAA gamma2beta3alpha1-beta3alpha6 receptor expressed in Xenopus laevis oocytes assessed as maximal current at -80 mV holding potential under more potent phase in presence of GABA EC1 to 1.5 by two-electrode voltage-clamp assay relative to control. The following applies: Oocyte. It counts as cell-based.

Experiment [21] addresses T4, Gamma-aminobutyric acid receptor subunit alpha-1/alpha-6/beta-3/gamma-2. The experiment in a line: Positive allosteric modulation of rat recombinant GABAA gamma2beta3alpha1-beta3alpha6 receptor expressed in Xenopus laevis oocytes assessed as increase in GABA-induced current amplitude at -80 mV holding potential under less potent phase in presence of GABA EC1 to 1.5 by two-electrode voltage-clamp assay. It counts as cell-based, Oocyte.

In experiment [22] the target is T1, Gamma-aminobutyric acid receptor subunit alpha-1/alpha-6/beta-3/gamma-2 (Rattus norvegicus). Description: Positive allosteric modulation of rat recombinant GABAA alpha6beta3alpha1-gamma2beta3 receptor expressed in Xenopus laevis oocytes assessed as maximal efficacy at -80 mV holding potential at 3 uM in presence of GABA EC1 to 1.5 by two-electrode voltage-clamp assay. It counts as cell-based. The following applies: Oocyte, filed as positive allosteric modulator.

With `COc1ccc(-n2nc3c4ccc(Br)cc4[nH]cc-3c2=O)cc1`, the Efficacy was determined as 89% in experiment [1]; 2% in [2]; 19% in experiment [4]; 18% in [6]; 80% in [7]; 570% in [8]. Further, the Efficacy in experiment [9] is 84%; in [10], 54%; in experiment [11], 65%; in experiment [13], 585%; in experiment [14], 595%; in experiment [15], 242%. Besides, the Efficacy in experiment [16] was found to be 17%; in [18], 101%; in experiment [22] it was 363%. For the same compound, the values for the EC50 in experiment [3], in experiment [19] and in experiment [21] were 11 µM, 7 µM and 36 µM, respectively. Besides, the %max in experiment [5] came out at 82%; in [12], 580%; in experiment [17], 657%; in experiment [20] it was 30%.

The EC50 is the concentration giving half of the maximal effect.
